Source: paper PMC4473678, “Swedish mutant APP-based BACE1 binding site peptide reduces APP β-cleavage and cerebral Aβ levels in Alzheimer’s mice” (Scientific Reports, 2015)
Entries after “also recorded” stand apart in the source; their conditions may differ.

What was measured:
5XFAD mice [1] = test: Rotarod test, 5XFAD mice; type: in vivo, mouse; details: 100 nmol/kg i.p. daily, 8 weeks, n = 10 per treatment, listed as TAT-APPsweBBP
Description: (§1) Transgenic AD mice [5XFAD; B6SJL-Tg(APPSwFlLon,PSEN1*M146L*L286V) 6799Vas/Mmjax] at 2.5 months of age were obtained from the Jackson Laboratory (Bar Harbor, ME) and housed and maintained in the Animal Facility of College of Medicine at University of South Florida (USF). The mice at 3.5 months of age were treated with TAT-APPsweBBP, TAT peptide (100 nmol/kg in 100 μL PBS) or PBS (100 μL) daily by intraperitioneal injection (i.p.) for eight consecutive weeks. The mice were subjected to behavioral testing after 8-week treatment and then euthanized for immunohistochemical, WB and ELISA analyses. Animals were housed and maintained at USF and all experiments were in compliance with protocols approved by USF Institutional Animal Care and Use Committee. All methods were performed in accordance with relevant guidelines and regulations.
The rotarod task was also performed to exclude the possibility that positive effects of any treatment in RAWM test are due to improvements in sensorimotor ability. Mice were positioned on the rod (diameter 3.6 cm) of the equipment (Rotarod 7650 accelerating model; Ugo Basile, Biological Research Apparatus, Varese, Italy), which was initially set at 1.0 rpm. The rod was then allowed to steadily accelerate up to 40.0 rpm over a 3-min session and evaluation was made by monitoring latency to fall.

WT mice [2] = test: Rotarod test, WT mice; type: in vivo, mouse; details: 100 nmol/kg i.p. daily, 8 weeks, n = 10 per treatment
5XFAD mice [3] = test: Radial arm water maze (RAWM), 5XFAD mice; type: in vivo, mouse; details: 100 nmol/kg i.p. daily, 8 weeks, n = 10 per treatment, 5 female/5 male, listed as TAT-APPsweBBP
Description: as §1
Spatial learning and memory performance was tested for each mouse using the Two-day Radial Arm Water Maze (RAWM) test[49]. The RAWM was carried out in a 100-cm circular pool with six swim alleys radiating from a common circular swim area. An escape platform was placed near the end of one arm, which forces mice to use working memory to perform this task. On day 1, mice are trained for 15 trials (5 blocks, 3 trials per block), with trials alternating between visible and hidden platform. […] Cognitive ability was assessed as the number of entry-arm errors.

CHO/APPswe cells = test: APP processing in CHO/APPswe cells (WB, ELISA); type: cell-based, Chinese hamster; details: 0 to 20 μM, 24 h
Description: Chinese hamster ovary (CHO) cells engineered to express human APPwt (CHO/APPwt cells) or human APPswe (CHO/APPswe cells) were kindly provided by Dr. Stefanie Hahn and Dr. Sascha Weggen (University of Heinrich Heine, Dusseldorf, Germany). As described in our recent report, these cells were cultured in Dulbecco’s modified Eagle’s medium with 10% fetal bovine serum, 1 mM sodium pyruvate and 100 U/mL of penicillin/streptomycin.
Following application of blocking buffer, these cells were stained with mouse anti-BACE1 and anti-biotin antibodies overnight at 4 °C for immunocytochemical analysis. In order to determine the inhibitory effects of TAT-APPsweBBP on BACE1-mediated APP β-cleavage and subsequent Aβ production, both CHO/APPwt and CHO/APPswe cells were plated in 24 well-plates (3×10^5/well) and treated with TAT-APPsweBBP at 0 to 20 μM for 24 h. The cultured media were collected for Aβ and sAPPα analysis by ELISA and WB. Cell lysates were also prepared for analysis of APP amyloidogenic processing by WB.
WB analysis was performed as previously described. Briefly, the proteins from the various cell-free suspensions, cell lysates and brain homogenates were electrophoretically separated using 10% bicine/tris gel (8 M urea) for proteins less than 5 kD or 10% tricine/tris gels for larger proteins. Electrophoresed proteins were transferred to polyvinylidene difluoride membranes (Bio-Rad, Richmond, CA), washed and blocked for 2 h at room temperature in Tris-buffered saline containing 5% (w/v) nonfat dry milk (TBS/NFDM). After blocking, membranes were hybridized for 2 h with various primary antibodies, washed and incubated for 1 h with the appropriate HRP-conjugated secondary antibody in TBS/NFDM. Blots were developed using the luminol reagent (Thermo Fisher Scientific, Waltham, MA).
Mouse brains were homogenized in ice-cold lysis buffer for 30 s using a Minilys tissue homogenizer (Bertin Technologies, Montigny-le-Bretonneux, France) set at high speed, allowed to stand for 15 min at 4 °C, and centrifuged at 15000 rpm for 30 min. Soluble Aβ1−40/42 species and sAPPα were directly detected in cultured cell media or brain homogenates using the Aβ1−40/42 (Invitrogen) and sAPPα ELISA kits (IBL-America, Minneapolis, MN). Detergent-insoluble total […] species were detected in brain by extracting pellets in 5 M guanidine HCl buffer, followed by a 1:20 dilution in lysis buffer.

WT mice [4] = test: Radial arm water maze (RAWM), WT mice; type: in vivo, mouse; details: 100 nmol/kg i.p. daily, 8 weeks, n = 10 per treatment, listed as TAT-APPsweBBP
[5] = test system: cortex and hippocampus of 5XFAD mice; test: Extracellular and intracellular peptide levels in brain (WB); type: in vivo, mouse; details: i.p., *P < 0.05, **P < 0.01, listed as TAT-APPsweBBP
Description: For specific extraction of extracellular versus intracellular proteins, hemibrains were harvested and placed in 500 μl of solution containing 50 mM Tris-HCl, pH 7.6, 0.01% NP-40, 150 mM NaCl, 2 mM EDTA, 0.1% SDS, 1 mM phenylmethylsulfonyl fluoride, and protease inhibitor cocktail (Sigma) as previously describe. Soluble, extracellular proteins were collected from mechanically homogenized lysates after centrifugation for 5 min at 3000 rpm. Cytoplasmic proteins were extracted from cell pellets mechanically dissociated with a micropipettor in 500 μl of TNT buffer (50 mM Tris-HCl, pH 7.6, 150 mM NaCl, and 0.1% Triton X-100) after centrifugation for 90 min at 13,000 rpm. Insoluble material was incubated with 20 μl of 70% formic acid, mechanically dissociated with a micropipette, gently agitated for 1 h, and buffered with 380 μl of 1 M Tris-HCl, pH 8.0. Samples were centrifuged for 90 min at 13,000 rpm, and supernatants were collected for analysis.
WB analysis was performed as previously described. Briefly, the proteins from the various cell-free suspensions, cell lysates and brain homogenates were electrophoretically separated using 10% bicine/tris gel (8 M urea) for proteins less than 5 kD or 10% tricine/tris gels for larger proteins. […]

[6] = *P < 0.05, **P < 0.01, three independent experiments, each triplicated

YGRKKRRQRRREISEVNLDAEFR [APPsweBBP conjugated with the membrane fusion fragment of HIV-1 Tat protein]
rotarod latency to fall / motor performance (5XFAD mice [1]): no differences between treatment groups on each day; also recorded: tended to enhance motor activity in 5XFAD mice, as shown by increased latency to fall, but this did not reach a statistical level of significance | rotarod latency to fall (WT mice [2]): no differences between treatment groups on each day | RAWM entry-arm errors (learning and memory) (5XFAD mice [3]): significantly fewer errors, compared to TAT- and PBS-treated mice; also recorded: enhanced cognitive ability, as evidenced by fewer errors | holo APP expression by WB (CHO/APPswe cells): leaving holo APP expression unaltered | sAPPα by WB (CHO/APPswe cells): promoting | β-CTF by WB (CHO/APPswe cells): markedly inhibited | Aβ1−40/42 by ELISA (CHO/APPswe cells; [6]): significantly decreased | sAPPα by ELISA (CHO/APPswe cells; [6]): increased sAPPα levels in a dose-dependent manner | Aβ by WB (CHO/APPswe cells; listed as TAT-APPsweBBP): markedly decreased Aβs; also recorded: markedly inhibited | RAWM entry-arm errors (WT mice [4]): no difference among the various treatment groups; also recorded: no significant difference between WT treatment groups | intracellular versus extracellular distribution in brain [5]: higher intracellular TAT-APPsweBBP distribution; also recorded: prefers to enter into cytoplasm of brain cells
